Values joined by “and” are separate entries in the source; they are usually repeats but may differ in a detail not shown here. Identical values can stand only once.
Molecular target: T1, hSirt5 (Homo sapiens, UniProt Q9NXA8)
T1 construct: comprised amino acids 37–310 (C-terminal region); His-tag (N); purchased Reaction Biology Corporation (Malvern, PA, USA); host or cells: Escherichia coli
T1 sequence (Q9NXA8 37-310): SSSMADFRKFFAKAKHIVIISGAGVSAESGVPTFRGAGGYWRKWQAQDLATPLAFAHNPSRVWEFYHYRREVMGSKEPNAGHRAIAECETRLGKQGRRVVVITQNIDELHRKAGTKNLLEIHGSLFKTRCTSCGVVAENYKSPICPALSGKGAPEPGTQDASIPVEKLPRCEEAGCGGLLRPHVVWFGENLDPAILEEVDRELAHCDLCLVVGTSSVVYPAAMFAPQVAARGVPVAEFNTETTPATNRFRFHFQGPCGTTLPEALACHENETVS
Experiment: fluorescence-based sirtuin 5 assay (Reaction Biology) with substrate Ac-Lys-succ-AMC and NAD+
Assay type: biochemical
Details: recombinant sirtuin 5 aa 37-310, 50 µM Ac-Lys-succ-AMC, 10-dose 3-fold dilution, mean of three measurements; read-out: IC50 (hSirt5) [µM] ± SD
Description: The synthesized cyclic boronate, cyanomethyl and formylmethyl derivatives of CG_209 and CG_220 were tested for their inhibitory effects against sirtuin 5 using a fluorescence-based assay utilizing a 7-amino-4-methyl coumarin-based succinylated lysine as its substrate. The IC50 values of these compounds were calculated as a mean of three measurements (Table 2). […] Significant loss in the potency of the boronates 51–54 could be observed compared to their lead structures CG_209 and CG_220.
The inhibitory activities of the synthesized target compounds were determined by Reaction Biology Corporation (Malvern, PA, USA) using a fluorescence-based assay. The sirtuin 5 enzyme utilized in this assay was produced in-house by Reaction Biology. The enzyme construct (accession number: NM_012241) comprised amino acids 37–310 (C-terminal region), carried an N-terminal His-tag and was expressed in Escherichia coli. The recombinant protein was purified to >95% purity, as confirmed by SDS-PAGE, and supplied in a solution containing 50 mM Tris-HCl (pH 8.0), 137 mM NaCl, 2.7 mM KCl, 1 mM MgCl2, 1 mg/mL BSA, and 1% DMSO with a protein concentration of 19 nM. Test compounds were prepared at a concentration of 10 mM in DMSO and incubated with 5 µL sirtuin 5 in the assay buffer per well at 30 °C for 10 min in a concentration range between 5 nM and 0.1 mM. 5 µL assay buffer without sirtuin 5 were used for control wells. The deacylation reaction was initiated by the addition of 5 µL substrate mixture comprising 50 µM fluorogenic substrate Ac-Lys-succ-AMC and the co-factor NAD^+. After a 2 h incubation at 30 °C, the reaction was terminated by adding 10 µL protease-based developer with 4 mM nicotinamide, which cleaves 7-amino-4-methylcoumarin to yield a fluorescent signal. Fluorescence was measured after an additional 1 h incubation at 30 °C, with excitation/emission wavelengths of 360/460 nm with EnVision® Plate Reader (Revvity, Waltham, MA, USA). To standardize results, a no-inhibitor control representing 100% enzyme activity was included in all assays. IC50 values for sirtuin 5 inhibition were determined in triplicate using a 10-dose, 3-fold serial dilution series. For each replicate, individual IC50 values were calculated by fitting sigmoidal dose–response curves using Prism 8.0.2 software (GraphPad Software, Boston, MA, USA). The final IC50 values are reported as the mean ± standard deviation of the triplicate measurements.

SMILES | IC50
N#CC[C@H](CC(=O)O)NC(=O)c1ccc(-c2cc(-c3ccc(O)c(C(=O)O)c3)no2)cc1 [Compound 47, (R)-5-(5-(4-((1-Carboxy-3-cyanopropan-2-yl)carbamoyl)phenyl)isoxazol-3-yl)-2-hydroxybenzoic acid] | 97 ± 22 µM
N#CC[C@H](CC(=O)O)NC(=O)c1ccc(-c2cn(-c3ccc(O)c(C(=O)O)c3)nn2)cc1 [Compound 49, (R)-5-(4-(4-((1-Carboxy-3-cyanopropan-2-yl)carbamoyl)phenyl)-1H-1,2,3-triazol-1-yl)-2-hydroxybenzoic acid] | 35 ± 6 µM
N#CC[C@@H](CC(=O)O)NC(=O)c1ccc(-c2cn(-c3ccc(O)c(C(=O)O)c3)nn2)cc1 [Compound 50, (S)-5-(4-(4-((1-Carboxy-3-cyanopropan-2-yl)carbamoyl)phenyl)-1H-1,2,3-triazol-1-yl)-2-hydroxybenzoic acid] | 27 ± 9 µM
O=CCC(CC(=O)O)NC(=O)c1ccc(-c2cc(-c3ccc(O)c(C(=O)O)c3)no2)cc1 (stereo not drawn) [Compound 61, 5-(5-(4-((1-Carboxy-4-oxobutan-2-yl)carbamoyl)phenyl)isoxazol-3-yl)-2-hydroxybenzoic acid] | 82 ± 3 µM
CC1(C)OC(=O)c2cc(-c3cc(-c4ccc(C5=N[C@H](CC(=O)O)CB(O)O5)cc4)on3)ccc2O1 [Compound 52, (S)-2-(6-(4-(3-(2,2-Dimethyl-4-oxo-4H-benzo[d][1,3]dioxin-6-yl)isoxazol-5-yl)phenyl)-2-hydroxy-3,4-dihydro-2H-1,5,2-oxazaborinin-4-yl)acetic acid] | 139 ± 18 µM
O=C(O)CCNC(=O)c1ccc(-c2cn(-c3ccc(O)c(C(=O)O)c3)nn2)cc1 [CG_220] | 9 ± 2 µM
CC1(C)OC(=O)c2cc(-c3cc(-c4ccc(C5=N[C@@H](CC(=O)O)CB(O)O5)cc4)on3)ccc2O1 [Compound 51, (R)-2-(6-(4-(3-(2,2-Dimethyl-4-oxo-4H-benzo[d][1,3]dioxin-6-yl)isoxazol-5-yl)phenyl)-2-hydroxy-3,4-dihydro-2H-1,5,2-oxazaborinin-4-yl)acetic acid] | 203 ± 50 µM
O=C(O)CCNC(=O)c1ccc(-c2cc(-c3ccc(O)c(C(=O)O)c3)no2)cc1 [CG_209] | 11 ± 1 µM
CC1(C)OC(=O)c2cc(-n3cc(-c4ccc(C5=N[C@H](CC(=O)O)CB(O)O5)cc4)nn3)ccc2O1 [Compound 54, (S)-2-(6-(4-(1-(2,2-Dimethyl-4-oxo-4H-benzo[d][1,3]dioxin-6-yl)-1H-1,2,3-triazol-4-yl)phenyl)-2-hydroxy-3,4-dihydro-2H-1,5,2-oxazaborinin-4-yl)acetic acid] | 61 ± 9 µM
N#CC[C@@H](CC(=O)O)NC(=O)c1ccc(-c2cc(-c3ccc(O)c(C(=O)O)c3)no2)cc1 [Compound 48, (S)-5-(5-(4-((1-Carboxy-3-cyanopropan-2-yl)carbamoyl)phenyl)isoxazol-3-yl)-2-hydroxybenzoic acid] | 65 ± 15 µM
CC1(C)OC(=O)c2cc(-n3cc(-c4ccc(C5=N[C@@H](CC(=O)O)CB(O)O5)cc4)nn3)ccc2O1 [Compound 53, (R)-2-(6-(4-(1-(2,2-Dimethyl-4-oxo-4H-benzo[d][1,3]dioxin-6-yl)-1H-1,2,3-triazol-4-yl)phenyl)-2-hydroxy-3,4-dihydro-2H-1,5,2-oxazaborinin-4-yl)acetic acid] | 137 ± 63 µM
O=CCC(CC(=O)O)NC(=O)c1ccc(-c2cn(-c3ccc(O)c(C(=O)O)c3)nn2)cc1 (stereo not drawn) [Compound 64, 5-(4-(4-((1-Carboxy-4-oxobutan-2-yl)carbamoyl)phenyl)-1H-1,2,3-triazol-1-yl)-2-hydroxybenzoic acid] | 60 ± 15 µM

System: sirtuin 5
Experiment: not given
Details: Figure 1, high-throughput screening hits; read-out: IC50 (published sirtuin 5 inhibitor); cited from earlier work

SMILES | IC50
O=C(O)CCNC(=O)c1ccc(/N=N/c2ccc(O)c(C(=O)O)c2)cc1 [Balsalazide, balsalazide] | 3.9 µM
O=C1c2c(O)cccc2Cc2cccc(O)c21 [Anthralin, anthralin] | 0.1 µM
C=C1c2cccc(O)c2C(=O)C2=C(O)[C@]3(O)C(=O)C(C(N)=O)=C(O)[C@@H](N(C)C)[C@@H]3[C@@H](O)[C@H]12 [Methacycline, methacycline] | 3.6 µM

Same assay, conditions: Figure 1; read-out: IC50 (published sirtuin 5 inhibitor); cited from earlier work

SMILES | IC50
O=C1Nc2ccc(I)cc2/C1=C/c1cc(Br)c(O)c(Br)c1 [GW5074] | 20 µM
N#C/C(=C\c1ccc(-c2ccc(C(=O)O)cc2)o1)C(=O)Nc1ccc(C#N)c(F)c1 [Liu compound 37] | 5.6 µM
O=c1[nH]c(=S)[nH]c(-c2ccccc2)c1Cc1c(O)ccc2ccccc12 [Cambinol, cambinol] | 43 µM
C=CCN1C(=O)/C(=C\c2ccc(-c3cccc(Cl)c3Cl)o2)C(=O)NC1=S [Maurer compound 2] | 2.3 µM

Same assay, conditions: published values of the lead structures; read-out: IC50 (published values of lead structures); cited from earlier work

SMILES | IC50
O=C(O)CCNC(=O)c1ccc(-c2cn(-c3ccc(O)c(C(=O)O)c3)nn2)cc1 [CG_220] | 7 µM and 7.4 µM
O=C(O)CCNC(=O)c1ccc(-c2cc(-c3ccc(O)c(C(=O)O)c3)no2)cc1 [CG_209] | 12 µM

Source: article PMC12472749, “Balsalazide-Derived Heterotriaryls as Sirtuin 5 Inhibitors: A Case Study of a Reversible Covalent Inhibition Strategy” (Molecules, 2025)
